In the supplement of paper PMC8498969:

Legend:
HEK293 [1] = assay: maximal inhibition of ZIKV NS1 production (% inhibition); higher = stronger antiviral effect
Description: (§1)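 HEK293 cells in 1536-well plates were pre-treated with compound for 1 h, infected with ZIKV (MOI 1) for 24 h, and NS1 antigen (intra- plus extracellular) was measured by TR-FRET. Confirmation used 11-point 1:3 dilutions, and IC50 and maximal inhibition were fitted in GraphPad Prism.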

HEK293 [2] = assay: IC50 for inhibition of ZIKV NS1 production
Description: as §1

HEK293 [3] = assay: cytotoxicity IC50 (ATP content, uninfected cells); higher = less cytotoxic; settings: infection: none

Cc1ccc([N+](=O)[O-])[c]2c1[O][Hg]2
maximal inhibition (HEK293 [1]): 107 | IC50 (HEK293 [2]): 14 µM | cytotoxicity IC50 (HEK293 [3]): 9 µM

CC(=O)[C@]1(O)Cc2c(O)c3c(c(O)c2[C@@H](O[C@H]2C[C@H](N)[C@H](O)[C@H](C)O2)C1)C(=O)c1ccccc1C3=O
maximal inhibition (HEK293 [1]): 86 | IC50 (HEK293 [2]): 0.17 µM | cytotoxicity IC50 (HEK293 [3]): > 100 µM

NCC(=O)Nc1ccc(-n2nc(C(F)(F)F)cc2-c2ccc3c(ccc4ccccc43)c2)cc1
maximal inhibition (HEK293 [1]): 106 | IC50 (HEK293 [2]): 0.99 µM | cytotoxicity IC50 (HEK293 [3]): 10 µM

CCc1c2c(nc3ccc(O)cc13)-c1cc3c(c(=O)n1C2)COC(=O)[C@]3(O)CC
maximal inhibition (HEK293 [1]): 61 | IC50 (HEK293 [2]): 0.011 µM | cytotoxicity IC50 (HEK293 [3]): > 100 µM

O=c1[nH]nc(Sc2ncc([N+](=O)[O-])s2)n1-c1ccc2c(c1)OCCO2
maximal inhibition (HEK293 [1]): 97 | IC50 (HEK293 [2]): 8 µM | cytotoxicity IC50 (HEK293 [3]): 12 µM

Cc1cc(Nc2cc(N3CCN(C)CC3)nc(Sc3ccc(NC(=O)C4CC4)cc3)n2)n[nH]1
maximal inhibition (HEK293 [1]): 107 | IC50 (HEK293 [2]): 14 µM | cytotoxicity IC50 (HEK293 [3]): > 100 µM

Cc1[nH]nc2ccc(-c3cncc(OC[C@@H](N)Cc4ccccc4)c3)cc12
maximal inhibition (HEK293 [1]): 97 | IC50 (HEK293 [2]): 5.1 µM | cytotoxicity IC50 (HEK293 [3]): 0.36 µM

Cn1c(=O)n(-c2ccc(C(C)(C)C#N)cc2)c2c3cc(-c4cnc5ccccc5c4)ccc3ncc21
maximal inhibition (HEK293 [1]): 82 | IC50 (HEK293 [2]): 3.2 µM | cytotoxicity IC50 (HEK293 [3]): 0.53 µM

CC[C@]1(O)C[C@@H]2CN(CCc3c([nH]c4ccccc34)[C@@](C(=O)OC)(c3cc4c(cc3OC)N(C)[C@H]3[C@@](O)(C(N)=O)[C@H](O)[C@]5(CC)C=CCN6CC[C@]43[C@@H]65)C2)C1
maximal inhibition (HEK293 [1]): 66 | IC50 (HEK293 [2]): 0.66 µM | cytotoxicity IC50 (HEK293 [3]): > 100 µM

CC(=O)Nc1ccc([C@H](C)C(=O)Nc2ncc(C(C)C)s2)cc1
maximal inhibition (HEK293 [1]): 90 | IC50 (HEK293 [2]): 7.4 µM | cytotoxicity IC50 (HEK293 [3]): > 100 µM

C[C@@]12C(=O)OC(=O)[C@]1(C)[C@H]1CC[C@@H]2O1
maximal inhibition (HEK293 [1]): 100 | IC50 (HEK293 [2]): 5.5 µM | cytotoxicity IC50 (HEK293 [3]): > 100 µM

O=C(NC1CCNCC1)c1n[nH]cc1NC(=O)c1c(Cl)cccc1Cl
maximal inhibition (HEK293 [1]): 91 | IC50 (HEK293 [2]): 3.1 µM | cytotoxicity IC50 (HEK293 [3]): 22 µM

Nc1nc(Cl)nc2c1ncn2[C@@H]1O[C@H](CO)[C@@H](O)[C@@H]1F
maximal inhibition (HEK293 [1]): 94 | IC50 (HEK293 [2]): 41 µM | cytotoxicity IC50 (HEK293 [3]): > 100 µM

CC(NCc1ccc2c(c1)nc(NC(=O)c1ccc(-c3cn[nH]c3)s1)n2CC(C)(C)O)C(C)(C)C (configuration not stated)
maximal inhibition (HEK293 [1]): 101 | IC50 (HEK293 [2]): 9.6 µM | cytotoxicity IC50 (HEK293 [3]): > 100 µM

CC[n+]1c(/C=C/C=C2/N(C)c3ccccc3C2(C)C)sc2ccccc21
maximal inhibition (HEK293 [1]): 97 | IC50 (HEK293 [2]): 4 µM | cytotoxicity IC50 (HEK293 [3]): 0.26 µM

O=C(c1ccc(Nc2nccc(-c3cc4ccccc4s3)n2)cc1)N1CCC(N2CCCC2)CC1
maximal inhibition (HEK293 [1]): 100 | IC50 (HEK293 [2]): 16 µM | cytotoxicity IC50 (HEK293 [3]): > 100 µM

C[C@@H]1CC[C@@]2(OC1)O[C@H]1C[C@H]3[C@@H]4CC=C5C[C@@H](O[C@@H]6O[C@H](CO)[C@@H](O[C@@H]7O[C@@H](C)[C@H](O)[C@@H](O)[C@H]7O)[C@H](O)[C@H]6O[C@@H]6O[C@@H](C)[C@H](O)[C@@H](O)[C@H]6O)CC[C@]5(C)[C@H]4CC[C@]3(C)[C@H]1[C@@H]2C
maximal inhibition (HEK293 [1]): 99 | IC50 (HEK293 [2]): 16 µM | cytotoxicity IC50 (HEK293 [3]): 45 µM

O=C1c2c(O)ccc(O)c2C(=O)c2c(NCCNCCO)ccc(NCCNCCO)c21
maximal inhibition (HEK293 [1]): 100 | IC50 (HEK293 [2]): 0.23 µM | cytotoxicity IC50 (HEK293 [3]): 50 µM

CO[C@H]1C(=O)[C@]2(C)[C@@H](OC)C[C@H]3OC[C@@]3(OC(C)=O)[C@H]2[C@H](OC(=O)c2ccccc2)[C@]2(O)C[C@H](OC(=O)[C@H](O)[C@@H](NC(=O)OC(C)(C)C)c3ccccc3)C(C)=C1C2(C)C
maximal inhibition (HEK293 [1]): 68 | IC50 (HEK293 [2]): 1.8 µM | cytotoxicity IC50 (HEK293 [3]): > 100 µM

CN[C@@H]1C[C@H]2O[C@@](C)([C@@H]1OC)n1c3ccccc3c3c4c(c5c6ccccc6n2c5c31)C(=O)N[C@H]4O
maximal inhibition (HEK293 [1]): 96 | IC50 (HEK293 [2]): 0.76 µM | cytotoxicity IC50 (HEK293 [3]): 100 µM

OCCN1CCN(CCCN2c3ccccc3Sc3ccc(C(F)(F)F)cc32)CC1
maximal inhibition (HEK293 [1]): 84 | IC50 (HEK293 [2]): 25 µM | cytotoxicity IC50 (HEK293 [3]): > 100 µM

CSc1cccc(Nc2ncc3cc(-c4c(Cl)cccc4Cl)c(=O)n(C)c3n2)c1
maximal inhibition (HEK293 [1]): 98 | IC50 (HEK293 [2]): 8.4 µM | cytotoxicity IC50 (HEK293 [3]): 6.6 µM

CC(C)[C@]12O[C@H]1[C@@H]1O[C@]13[C@]1(O[C@H]1C[C@H]1C4=C(CC[C@@]13C)C(=O)OC4)[C@@H]2O
maximal inhibition (HEK293 [1]): 73 | IC50 (HEK293 [2]): 0.47 µM | cytotoxicity IC50 (HEK293 [3]): > 100 µM

Cc1cc(C2CCCCC2)n(O)c(=O)c1
maximal inhibition (HEK293 [1]): 100 | IC50 (HEK293 [2]): 14 µM | cytotoxicity IC50 (HEK293 [3]): 20 µM

O=[N+]([O-])c1ccc2c(c1)S(=O)(=O)C=C2
maximal inhibition (HEK293 [1]): 103 | IC50 (HEK293 [2]): 11 µM | cytotoxicity IC50 (HEK293 [3]): 7.2 µM

OC[C@H]1O[C@@H](n2cnc3c(S)ncnc32)[C@H](O)[C@@H]1O
maximal inhibition (HEK293 [1]): 99 | IC50 (HEK293 [2]): 8 µM | cytotoxicity IC50 (HEK293 [3]): 4.1 µM

O=C(Nc1ccc([N+](=O)[O-])cc1Cl)c1cc(Cl)ccc1O
maximal inhibition (HEK293 [1]): 102 | IC50 (HEK293 [2]): 8.3 µM | cytotoxicity IC50 (HEK293 [3]): 3.3 µM

CC[C@@]1(O)C(=O)OCc2c1cc1n(c2=O)Cc2cc3ccccc3nc2-1
maximal inhibition (HEK293 [1]): 82 | IC50 (HEK293 [2]): 0.026 µM | cytotoxicity IC50 (HEK293 [3]): > 100 µM

NC1(c2ccc(-c3nc4ccn5c(=O)[nH]nc5c4cc3-c3ccccc3)cc2)CCC1
maximal inhibition (HEK293 [1]): 103 | IC50 (HEK293 [2]): 23 µM | cytotoxicity IC50 (HEK293 [3]): 4.4 µM

CC1(C(=O)O)C2CCC(O2)C1(C)C(=O)O (configuration not stated)
maximal inhibition (HEK293 [1]): 105 | IC50 (HEK293 [2]): 2.6 µM | cytotoxicity IC50 (HEK293 [3]): > 100 µM

C/C=C(/C)C(=O)O[C@H]1C(C)=C2[C@H]([C@@H]1OC(=O)CCCCCCC)[C@@](C)(OC(C)=O)C[C@H](OC(=O)CCC)[C@@]1(O)[C@H]2OC(=O)[C@@]1(C)O
maximal inhibition (HEK293 [1]): 93 | IC50 (HEK293 [2]): 0.17 µM | cytotoxicity IC50 (HEK293 [3]): 40 µM

CC1=CC(=O)c2ccccc2C1=O
maximal inhibition (HEK293 [1]): 101 | IC50 (HEK293 [2]): 44 µM | cytotoxicity IC50 (HEK293 [3]): 45 µM

Oc1ccc(-c2ccc(-c3cc(Nc4cccc(CNC5CC5)c4)n[nH]3)cc2)c(O)c1
maximal inhibition (HEK293 [1]): 108 | IC50 (HEK293 [2]): 1.5 µM | cytotoxicity IC50 (HEK293 [3]): 27 µM

CC[C@H](CC#N)OC(=O)N[C@@H](C)c1cccc(NC(=O)Nc2ccc(-c3cnco3)c(OC)c2)c1
maximal inhibition (HEK293 [1]): 99 | IC50 (HEK293 [2]): 0.14 µM | cytotoxicity IC50 (HEK293 [3]): 20 µM

C[C@@H]1O[C@@H](O[C@H]2C[C@@H](O)[C@]3(CO)[C@H]4[C@H](O)C[C@]5(C)[C@@H](C6=CC(=O)OC6)CC[C@]5(O)[C@@H]4CC[C@]3(O)C2)[C@H](O)[C@H](O)[C@H]1O
maximal inhibition (HEK293 [1]): 102 | IC50 (HEK293 [2]): 0.17 µM | cytotoxicity IC50 (HEK293 [3]): 0.19 µM

COc1cccc2c1C(=O)c1c(O)c3c(c(O)c1C2=O)C[C@@](O)(C(C)=O)C[C@@H]3O[C@H]1C[C@H](N)[C@H](O)[C@H](C)O1
maximal inhibition (HEK293 [1]): 66 | IC50 (HEK293 [2]): 0.54 µM | cytotoxicity IC50 (HEK293 [3]): > 100 µM

c1ccc2c(CCNc3ccc(Nc4ccncc4)cc3)c[nH]c2c1
maximal inhibition (HEK293 [1]): 51 | IC50 (HEK293 [2]): 23 µM | cytotoxicity IC50 (HEK293 [3]): > 100 µM

O=c1[nH]c(=O)n([C@H]2C[C@H](O)[C@@H](CO)O2)cc1F
maximal inhibition (HEK293 [1]): 98 | IC50 (HEK293 [2]): 0.92 µM | cytotoxicity IC50 (HEK293 [3]): 60 µM

Cc1c(O)cccc1C(=O)N[C@@H](CSc1ccccc1)[C@H](O)CN1C[C@H]2CCCC[C@H]2C[C@H]1C(=O)NC(C)(C)C
maximal inhibition (HEK293 [1]): 84 | IC50 (HEK293 [2]): 24 µM | cytotoxicity IC50 (HEK293 [3]): > 100 µM
